From patent publication US20100184189A1, “PROTEIN FOR THE CHEMOENZYMATIC PRODUCTION OF L-THREO-HYDROXYASPARTATE” (priority 2007, published 2010)

What was measured:
[1] = molecular target: T1, AsnO D241N (Streptomyces coelicolor, UniProt Q9Z4Z5, D241N/M1S); assay: Activity of the AsnO D241N mutant: conversion of L-Asp, HPLC MS; type: biochemical; set-up: made in house; host or cells: E. coli BL21 (DE3), pQTEV vector; conditions: AsnO D241N 40 μM, 1.5 mM L-Asp, 1.0 mM (NH4)2Fe(SO4)2, 1.0 mM α-ketoglutarate, 16 h, 16° C.
T1 sequence (Q9Z4Z5 other isoform, or with tags, fused parts or gaps D241N): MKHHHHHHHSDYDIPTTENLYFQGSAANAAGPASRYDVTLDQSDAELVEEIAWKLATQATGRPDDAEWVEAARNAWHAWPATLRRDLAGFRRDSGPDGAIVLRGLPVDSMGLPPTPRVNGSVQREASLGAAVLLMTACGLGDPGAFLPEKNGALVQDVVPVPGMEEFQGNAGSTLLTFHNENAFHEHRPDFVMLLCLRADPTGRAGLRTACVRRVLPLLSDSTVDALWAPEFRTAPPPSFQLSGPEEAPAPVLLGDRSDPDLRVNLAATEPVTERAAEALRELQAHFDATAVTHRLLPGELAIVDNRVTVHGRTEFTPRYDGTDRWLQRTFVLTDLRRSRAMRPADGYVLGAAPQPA
Protocol: In order to evaluate the activity of the AsnO D241N mutant, the purified enzyme
The reaction is monitored by means of HPLC MS, by scanning the masses for L-Asp ([M+H]^+=[…]) and its hydroxylated form ([M+H]^+=150.04 Da). […] (FIG. 3a). In the control reaction, in which no enzyme is added, only L-Asp can be detected (FIG. 3b). Commercially available L-Asp (Bachem) as well as L-threo-3-hydroxyaspartate (Tocris Bioscience) are used as standards for the comparison of the retention times with HPLC.
Column: Hypercarb (Thermo Electron Corporation, pore diameters of 250 Å, particle size of 5 μM, 100% carbon). Mobile phases: A=20 mM aqueous nonafluoropentane acid, B=acetonitrile Gradient: 0-10% B in 12 min, flow rate 0.2 mL 1 min at 17.5° C. • FIG. 3a: negative control, no addition of enzyme (=AsnO D241N) • Only L-Asp is detected. • Retention time: 3.72 min; • Mber=134.045, Mgef=134.048 • FIG. 3b: incubation of L-Asp with AsnO D241N • After 16 h of incubation at 16° C. only • L-threo-3-hydroxyaspartate is detected. • Retention time 3.39 min; • Mber=150.040, Mgef=150.042

[2] = molecular target: T1, AsnO D241N; conditions: AsnO D241N 40 μM, substrate L-Asp 50 μM to 2 mM
Protocol: For the evaluation of the kinetic parameters at different concentrations of the substrate L-Asp (50 μM to 2 mM), the latter was incubated as described under practical embodiment 3 with AsnO D241N (40 μM), 1.0 mM (NH4)2Fe(SO4)2 as source of the iron cofactor and 1.0 mM α-ketoglutarate (cosubstrate) and the enzyme assay was stopped at different points in time by adding nonafluoropentane acid.
The kinetic parameters of AsnO D241N are subsequently determined by means of a Lineweaver-Burk equation (FIG. 4b).

[3] = molecular target: T1, AsnO D241N; assay: Substrate specificity of the mutated protein AsnO D241N, HPLC/MS; type: biochemical; set-up: made in house; host or cells: E. coli BL21 (DE3), pQTEV vector; conditions: amino acid 1.5 mM, 16 h at 16° C., (NH4)2Fe(SO4)2 1 mM, α-ketoglutarate 4 mM, catalase, HEPES pH 7.5
Protocol: The specificity of AsnO D241N for the conversion of L-Asp in L-threo-3-hydroxyaspartate is examined by incubating this mutated protein during 16 h at 16° C. with the amino acids (1.5 mM) listed in Table 1, the cofactor (NH4)2Fe(SO4)2 (1 mM), the cosubstrate α-ketoglutarate (4 mM) and 20 μg catalase in […] of a 50 mM HEPES buffer (pH 7.5). The catalase is added in order to quench reactive oxygen species and to prevent hereby the autoxidation of the enzyme. Controls are carried out in the absence of AsnO D241N.
The reaction is stopped by the addition of 50-200 μL of a 4% solution (V/V) of nonafluoropentane acid and subsequently the hydroxylation of the amino acid substrate to the respectively corresponding hydroxy amino acid is examined by means of reversed phase HPLC/MS. Column: Hypercarb (Thermo Electron Corporation, pore diameters of 250 Å, particle size of 5 μM, 100% carbon). Mobile phases: A=20 mM aqueous nonafluoropentane acid, B=acetonitrile. Gradient: 0-10% B in 12 min, flow rate 0.2 mL/min at 17.5° C.
The reaction product of the incubation of the respective amino acid with AsnO D241N is carried out by means of highest resolution MS with an API Qstar Pulsar I (Applied Biosystems).

[4] = system: glutamate transporters; conditions: literature statement; cited from earlier work
[5] = system: wild type AsnO; assay: Kinetic parameters of the wild type AsnO for L-Asn (comparison); type: biochemical, Streptomyces coelicolor; conditions: wild type AsnO with L-Asn versus AsnO D241N with L-Asp
[6] = substrate: NC(=O)C[C@H](N)C(=O)O; assay: as above; type: biochemical, Streptomyces coelicolor; conditions: other: wild type AsnO, substrate L-Asn

Molecule	hydroxylation [3]	further results
N[C@@H](CC(=O)O)C(=O)O [L-Asp, L-aspartate]	yes	conversion of L-aspartate to L-threo-3-hydroxyaspartate [1]: Quantitative conversion; conversion of L-aspartate to L-threo-3-hydroxyaspartate ([1]; listed as L-aspartate): quantitative conversion; Km [2]: 457 ± 31 µM; kcat [2]: 0.0167 ± 0.0017 s⁻¹
CC(C)[C@H](N)C(=O)O [L-Val]	no	
CC[C@H](C)[C@H](N)C(=O)O [L-Ile]	no	
N[C@@H](Cc1c[nH]c2ccccc12)C(=O)O [L-Trp]	no	
N[C@H](CC(=O)O)C(=O)O [D-Asp]	no	
NC(C(=O)O)C(OCc1ccccc1)C(=O)O [L-TBOA]		inhibition of the function of the glutamate transporters [4]: also comprises this inhibitor effect
NC(=O)C[C@H](N)C(=O)O [L-Asn, L-asparagine]	no	kcat of wild type AsnO relative to AsnO D241N [5]: 300 times
N[C@@H](Cc1ccccc1)C(=O)O [L-Phe]	no	
NC(=O)CC[C@H](N)C(=O)O [L-Gln]	no	
N[C@@H](CCC(=O)O)C(=O)O [L-Glu, L-glutamate]	no	
N[C@H](C(=O)O)[C@H](O)C(=O)O [L-threo-hydroxaspartate, L-threo-hydroxyaspartate]		inhibition of the function of the glutamate transporters [4]: inhibits the function of the glutamate transporters
wild type AsnO (Streptomyces coelicolor A3(2)) (protein) MAANAAGPASRYDVTLDQSDAELVEEIAWKLATQATGRPDDAEWVEAARNAWHAWPATLRRDLAGFRRDSGPDGAIVLRGLPVDSMGLPPTPRVNGSVQREASLGAAVLLMTACGLGDPGAFLPEKNGALVQDVVPVPGMEEFQGNAGSTLLTFHNENAFHEHRPDFVMLLCLRADPTGRAGLRTACVRRVLPLLSDSTVDALWAPEFRTAPPPSFQLSGPEEAPAPVLLGDRSDPDLRVDLAATEPVTERAAEALRELQAHFDATAVTHRLLPGELAIVDNRVTVHGRTEFTPRYDGTDRWLQRTFVLTDLRRSRAMRPADGYVLGAAPQPA		Km [6]: 478 ± 67 µM; kcat [6]: 4.97 ± 0.317 s⁻¹
